We go through 12 molecules from ChEMBL document CHEMBL3217665, “Amino-derivatives of the sesquiterpene lactone class of natural products as prodrugs” (Medchemcomm, 2013).

Converted amounts (≈) assume the structure as drawn.

The subject of one series is A549. Nature of the series: Antiproliferative activity against human A549 cells. It is filed as functional, cell-based.
Series [1] relates to P388. Description: Antiproliferative activity against mouse P388 cells. In kind it is functional, cell-based.
The test system of the next series is NCI-H520. Nature of the series: Antiproliferative activity against human NCI-H520 cells. It is filed as functional, cell-based.
The next series deals with MCF7. Nature of the series: Antiproliferative activity against human MCF7 cells. In kind it is functional, cell-based.
A short description of series [2]: Antiproliferative activity against human Hep2 cells. In kind it is functional. To be noted: HEp-2, read-out: ED50 (the source's name).
The test system of series [3] is P388. Nature of the series: Antitumor activity against mouse P388 cells allografted in DBA/2 mouse assessed as survival. In kind it is functional.
The next series is filed under the species Rattus norvegicus. Nature of the series: Gastroprotective activity in rat assessed as inhibition of HCl/ethyl alcohol-induced lesions. It is filed as functional.
A short description of series [4]: Antiinflammatory activity in mouse macrophages assessed as LPS-induced nitric oxide production. It is filed as functional, cell-based. To be noted: Macrophage.
A further series is filed under the species Mus musculus. Nature of the series: Gastroprotective activity in mouse assessed as inhibition of water-immersion-induced lesions. It is filed as functional.
A short description of series [5]: Cmax in dog at 100 mg/kg, po. The following applies: in vivo. It is filed as ADME, organism-based, Canis lupus familiaris. Also on record: dose 100 mg/kg, route oral.
Series [6] is described as follows: Cmax in mouse at 40 mg/kg, po. Also on record: dose 40 mg/kg, route oral. It is filed as ADME, organism-based. The following applies: in vivo.
The nature of series [7]: Oral bioavailability in dog at 100 mg/kg. In kind it is ADME, organism-based, Canis lupus familiaris. The following applies: in vivo.
The nature of series [8]: Cmax in mouse at 100 mg/kg, po. It is filed as ADME, organism-based. Also on record: dose 100 mg/kg, route oral. To be noted: in vivo.
The nature of series [9]: Half life in dog at 100 mg/kg, po. It is filed as ADME, organism-based, Canis lupus familiaris. Also on record: dose 100 mg/kg, route oral. The following applies: in vivo.
The nature of series [10]: Oral bioavailability in mouse at 100 mg/kg. It is filed as ADME, organism-based. To be noted: in vivo.
Series [11] is described as follows: Half life in mouse at 100 mg/kg, po. It is filed as ADME, organism-based. Further details: dose 100 mg/kg, route oral. The following applies: in vivo.

The IC50 is the point on the concentration scale where inhibition reaches its midpoint. Turning to `C=C1C(=O)O[C@@H]2C[C@@]3(C)CCCC(=C)[C@@H]3C[C@H]12` [ISOALANTOLACTONE], the IC50 in the series on A549 turned out to be 600 nM; in the series on P388 [1] it was 400 nM; in the series with NCI-H520 it was 900 nM; with MCF7, 600 nM.
Turning to `C=C1C(=O)O[C@@H]2C[C@@H](C)[C@@H]3C=CC(=O)[C@@]3(C)[C@@H](O)[C@H]12` [HELENALIN], the EC50 in series [2] came out at 0.083 µg/mL (≈ 0.316 µM). Besides, the Survival in the series on P388 [3] stood at 13.4 days.
Regarding `C=C1CC[C@H]2C(=C)CC[C@@H]3[C@H](OC(=O)[C@H]3CN3CCC[C@H]3C(=O)O)[C@@H]12`, the results for the “inhibition (INH)” value in the series filed under Rattus norvegicus and in the series listed under Mus musculus were 87% and 19%, respectively. The IC50 in series [4] came to 2.8 µg/mL (≈ 8.11 µM).
Turning to `C=C1CC[C@H]2C(=C)CC[C@@H]3[C@H](OC(=O)[C@H]3CN[C@@H](CC(N)=O)C(=O)O)[C@@H]12`, the “inhibition (INH)” value amounted to 68.1% in the series filed under Rattus norvegicus and 4.7% in the series filed under Mus musculus. Moreover, in [4], the 50% inhibitory concentration (IC50) was determined as 16 µg/mL (≈ 44.1 µM).
On the same counts, the results for `C/C1=C\[C@H]2OC(=O)[C@@H](CN3CCC[C@H]3C(=O)O)[C@@H]2CC/C(C)=C/CC1` are 59.8%, 57% and 2.8 µg/mL (≈ 8.06 µM).
On to `C=C1CCC[C@]2(C)C[C@H]3OC(=O)[C@@H](CN(CC)CC)[C@H]3C[C@@H]12`, for which the IC50 came to 800 nM in the series on A549, 300 nM in the series with P388 [1], 900 nM in the series on NCI-H520 and 800 nM in the series with MCF7.
As for `C=C1C(=O)O[C@@H]2/C=C(\C)CC/C=C(\C)CC[C@@H]12` [COSTUNOLIDE], the results for the “inhibition (INH)” value in the series listed under Rattus norvegicus and in the series filed under Mus musculus were 93.2% and 14.3%, respectively. Moreover, the IC50 in series [4] stood at 1.2 µg/mL (≈ 5.17 µM).
As for `C=C1C(=O)O[C@@H]2C[C@@H](C)[C@@H]3CCC(=O)[C@@]3(C)[C@@H](O)[C@H]12`, in series [2], the EC50 is 3.83 µg/mL (≈ 14.5 µM).
As usually defined, the Cmax is the maximum level reached in the sampled fluid or tissue. For orientation: bioavailability means dose-corrected exposure relative to a reference, in per cent. Read a high bioavailability as much systemic uptake. What is called half-life is how long it takes for the measured level to halve. Regarding `C/C1=C\CC[C@@]2(C)O[C@@H]2[C@H]2OC(=O)[C@@H](CN(C)C)[C@@H]2CC1`, the figures for the Cmax in series [5], in series [6] and in [8] were 61 µM, 0.2 µM and 25 µM, respectively. Also, the bioavailability in series [7] and in series [10] was 70% each time. The half-life in series [9] was 1.9 h; in series [11] it was 0.63 h.
Consider `C[C@@H]1C[C@H]2OC(=O)C(CN(C)C)[C@H]2[C@H](O)[C@]2(C)C(=O)C=C[C@@H]12` (stereo partly specified), for which the EC50 in series [2] stood at 0.604 µg/mL (≈ 1.96 µM). Also, in the series with P388 [3], the Survival came to 13 days.
Take `C=C1CC[C@H]2C(=C)CC[C@H]3C(=C)C(=O)O[C@@H]3[C@@H]12` [DEHYDROCOSTUSLACTONE]: the “inhibition (INH)” value amounted to 96.2% in the series filed under Rattus norvegicus and 19% in the series filed under Mus musculus. Besides, in [4], the IC50 stood at 1.2 µg/mL (≈ 5.21 µM).
On to `C[C@@H]1C[C@H]2OC(=O)C(CN(C)C)[C@H]2[C@H](O)[C@]2(C)C(=O)CC[C@@H]12` (stereo partly specified), for which the EC50 in [2] came to 6.04 µg/mL (≈ 19.5 µM).
